The values below come from US11787766B2, “Compound having PD-L1 inhibitory activity, preparation method therefor and use thereof” (SHANGHAI ENNOVABIO PHARMACEUTICALS CO., LTD., priority 2017, dated 2023).

Some results are limits rather than exact numbers.

Chain of PD-L1 (Q9NZQ7 19-238): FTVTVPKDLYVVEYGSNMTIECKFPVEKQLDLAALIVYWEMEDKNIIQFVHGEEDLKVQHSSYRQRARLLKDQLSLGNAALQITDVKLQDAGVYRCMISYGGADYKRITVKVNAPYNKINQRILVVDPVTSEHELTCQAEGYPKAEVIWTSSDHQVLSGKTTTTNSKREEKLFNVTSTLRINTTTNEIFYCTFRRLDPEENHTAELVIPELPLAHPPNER

This experiment has as its target PD-L1 (Homo sapiens (Human), UniProt Q9NZQ7). The experiment can be described thus: PD-1/PD-L1 homogeneous time-resolved fluorescence (HTRF) binding assay. To be noted: Cisbio PD1/PD-L1 binding assay kit. From the text: PD-1/PD-L1 homogeneous time-resolved fluorescence (HTRF) detection technology was used to detect the binding ability of the compound to PD-L1.
PD1/PD-L1 binding assay kit (Cisbio, Cat #63ADK000CPDEC) was used, which includes two proteins, Tag 1-PD-L1 and Tag 2-PD-1, and two antibodies, Anti-Tag1-Eu^3+ and Anti-Tag2-XL 665. Assay principle: Anti-tag1-Eu^3+ is the HTRF donor, and Anti-Tag2-XL 665 is the HTRF acceptor. When Tag 1-PD-L1 and Tag 2-PD-1 interact, the added HTRF donor and the acceptor are close to each other. After the donor receives the excitation energy, it transfers part of the energy to the acceptor, thus producing 665 nm emission signal. When the compound is added to block the PD1/PD-L1 interaction, only 620 nm emission light was detected. The inhibitory effect of the compound was determined by analyzing the ratio of 665 nm/620 nm. Tag 1-PD-L1 was diluted with Diluent buffer (cat #62DLBDDF) to a working concentration of 10 nM, Tag 2-PD-1 was diluted with Diluent buffer to a working concentration of 500 nM, and Anti-Tag1-Eu^3+ was diluted with detection buffer (cat #62DB1FDG) by 1:100, Anti-Tag2-XL 665 was diluted with detection buffer by 1:20, and the test compound was diluted with Diluent buffer to a final concentration of 2×. In a 384-well plate, 2 μL of compound was added to each well, and then 4 μL of Tag 1-PD-L1, 4 μL of Tag 2-PD-1 were added and incubated at room temperature for 15 minutes. 5 μL Anti-Tag1-Eu^3+ and 5 μL Anti-Tag2-XL 665 were added and incubated overnight at room temperature, and detected with BioTek Synergy™ Neo2 Multifunctional Microplate Reader to obtain the ratio of 665 nm/620 nm. The IC50 curve was fitted by GraphPad Prism 5.02.
In general, IC50 refers to the concentration at which inhibition is half-maximal. With `COc1nc(OCc2cccc(-c3cccc(COc4ccc(CN5CC(CC(N)=O)C5)c(OC)n4)c3Cl)c2Cl)ccc1CN1CC(CC(N)=O)C1` [Compound 76], the IC50 was < 10 nM. As for `COc1nc(OCc2cccc(-c3cccc(COc4ccc(CNC5CCOC5=O)c(OC)n4)c3C)c2C)ccc1CNC1CCOC1=O` (centres unmarked) [Compound 64], the IC50 lay in the range of 10 to 100 nM. Under `COc1nc(OCc2cccc(-c3cccc(COc4ccc(CNCC(N)C(F)(F)F)c(OC)n4)c3Cl)c2Cl)ccc1CNCC(N)C(F)(F)F` (centres unmarked) [Compound 82] stands 10 to 100 nM; under `COc1nc(OCc2cccc(COc3ccc(CNCCNC(C)=O)c(OC)n3)c2C)ccc1CNCCNC(C)=O` [Compound 19], 100 to 1000 nM. Turning to `COc1nc(OCc2cccc(-c3cccc(COc4ccc(CN5CCCC[C@H]5C(=O)O)c(OC)n4)c3C)c2C)ccc1CN1CCCC[C@H]1C(=O)O` [Compound 26], the IC50 is < 10 nM. Under `COc1nc(OCc2cccc(-c3cccc(CO)c3C)c2C)ccc1CNC(=O)C(F)(F)F` [Compound 1, 2,2,2-trifluoro-N-((6-((3′-(hydroxymethyl)-2,2′-dimethyl-[1,1′-biphenyl]-3-yl)methoxy)-2-methoxypyridin-3-yl)methyl)acetamide] stands > 1000 nM; under `CNS(=O)(=O)CCNCc1ccc(OCc2cccc(-c3cccc(COc4ccc(CNCCS(=O)(=O)NC)c(OC)n4)c3Cl)c2Cl)nc1OC` [Compound 80], 10 to 100 nM.

In the case of `COc1nc(OCc2cccc(-c3cccc(COc4ccc(CNCCNC(C)=O)c(OC)n4)c3C)c2)ccc1CNCCNC(C)=O` [Compound 28], the half-maximal inhibitory concentration (IC50) fell in the range of 10 to 100 nM. To `COc1nc(OCc2cccc(-c3cccc(COc4ccc(CN5CCCCC5C(=O)O)c(OC)n4)c3Cl)c2Cl)ccc1CN1CCCCC1C(=O)O` (centres unmarked) [Compound 70] belongs < 10 nM; to `COc1nc(OCc2cccc(-c3cccc(COc4ccc(CN[C@@H](CC(N)=O)C(=O)O)c(OC)n4)c3C)c2C)ccc1CN[C@@H](CC(N)=O)C(=O)O` [Compound 49], < 10 nM; to `COc1nc(OCc2cccc(-c3cccc(COc4ccc(CN5CCC5C(=O)O)c(OC)n4)c3C)c2C)ccc1CN1CCC1C(=O)O` (centres unmarked) [Compound 35], < 10 nM.

On to `COc1nc(OCc2cccc(-c3cccc(COc4ccc(CN5CCCC(C(N)=O)C5)c(OC)n4)c3C)c2C)ccc1CN1CCCC(C(N)=O)C1` (centres unmarked) [Compound 53], for which the IC50 lay within 100 to 1000 nM. For `COc1nc(OCc2cccc(-c3cccc(COc4ccc(CN5CCC6(CCC(=O)N6)C5)c(OC)n4)c3C)c2C)ccc1CN1CCC2(CCC(=O)N2)C1` (centres unmarked) [Compound 60], the IC50 is < 10 nM. Take `COc1nc(OCc2cccc(-c3cccc(COc4ccc(CNCCNC(C)=O)c(OC)n4)c3Cl)c2Cl)ccc1CNCCNC(C)=O` [Compound 43]: the IC50 is < 10 nM. As for `COc1nc(OCc2cccc(-c3cccc(COc4ccc(CNC5CCCCC5O)c(OC)n4)c3C)c2C)ccc1CNC1CCCCC1O` (centres unmarked) [Compound 24], the IC50 lay in the range of 10 to 100 nM.

In the case of `COc1nc(OCc2cccc(-c3cccc(COc4ccc(CN5C[C@@H](O)C[C@H]5C(=O)O)c(OC)n4)c3C)c2C)ccc1CN1CC[C@H](O)C1` [Compound 47], the IC50 is < 10 nM.

`COc1nc(OCc2cccc(-n3nnc(COc4ccc(CNCCNC(C)=O)c(OC)n4)c3C)c2C)ccc1CNCCNC(C)=O` [Compound 31]: the IC50 is > 1000 nM. With `COc1nc(OCc2cccc(-c3cccc(COc4ccc(CNC(CCO)C(=O)O)c(OC)n4)c3C)c2C)ccc1CNC(CCO)C(=O)O` (centres unmarked) [Compound 67], the IC50 was < 10 nM. As to `COc1nc(OCc2cccc(-c3cccc(COc4ccc(CNC5CNC(=O)C5)c(OC)n4)c3C)c2C)ccc1CNC1CNC(=O)C1` (centres unmarked) [Compound 55], the IC50 fell in the range of 10 to 100 nM.

In the case of `COc1nc(OCc2cccc(-c3cccc(COc4ccc(CNC(C)(CO)CO)c(OC)n4)c3C)c2C)ccc1CNC(C)(CO)CO` [Compound 50], the IC50 was < 10 nM. Consider `COc1nc(OCc2cccc(-n3nc(C)c(COc4ccc(CNCCNC(C)=O)c(OC)n4)c3C)c2C)ccc1CNCCNC(C)=O` [Compound 29], for which the IC50 is > 1000 nM. Regarding `COc1nc(OCc2cccc(-c3cccc(COc4ccc(CNCc5nnn[nH]5)c(OC)n4)c3Cl)c2Cl)ccc1CNCc1nnn[nH]1` [Compound 75], the IC50 was < 10 nM. `COc1nc(OCc2cccc(-c3cccc(COc4ccc(CNCC(N)=O)c(OC)n4)c3Cl)c2Cl)ccc1CNCC(N)=O` [Compound 73]: the IC50 is < 10 nM. `COc1nc(OCc2cccc(-c3cccc(COc4ccc(CN5CC(C(N)=O)C5)c(OC)n4)c3C)c2C)ccc1CN1CC(C(N)=O)C1` [Compound 63]: the IC50 is < 10 nM. For `COc1nc(OCc2cccc(-n3cnc(COc4ccc(CNCCNC(C)=O)c(OC)n4)c3C)c2C)ccc1CNCCNC(C)=O` [Compound 38], the IC50 is > 1000 nM. As for `CC(=O)NCCNCC(=O)Nc1cnn(Cc2cccc(-c3cccc(Cn4cc(NC(=O)CNCCNC(C)=O)cn4)c3C)c2C)c1` [Compound 25], the IC50 was > 1000 nM.
